Data on 1 compound can be found in patent publication US5130119A, “Method of using fluorosubstituted benzene derivatives in F-NMR imaging” (Schering Aktiengesellschaft, priority 1988, dated 1992).

What is called LD50 is the dose expected to kill half of the subjects tested.

In series [1] the test system is kidney, bladder and ureter. Kind of series: 19F imaging. In kind it is in vivo, rat. The source says: FIG. 4 relates to Example 50 and is the projection ^19 F image of the kidney, bladder, and ureters of a rat administered 0.75 mmol/kg of 5-[N-4-fluoro-2-trifluoromethylphenyl)sulfamoyl] isophthalic acid and 0.2 mmol/kg GdDTPA.
Production of the solution of the fluorinated substance as well as preparation of the animal take place as in taking the ^19 F NMR spectra.
The test animal is placed in the measuring coil and the fluorinated compound is applied in a dose of 0.75 mmol/kg of body weight by the tail vein in 1 minute. Then an intravenous application takes place, also by needle in the tail vein, of GdDTPA in a dose of 0.2 mmol/kg. Making of the image takes place with a projection spin echo sequence and the parameters: TR=28 msec (repetition rate), TE=4 msec (echo time), NEX=256 (number of averagings); the total measuring time is 15 minutes.

Series [2] concerns rat (whole animal; bladder area). Kind of series: in vivo 19F NMR spectroscopic pH determination. The arrangement: species or system female rats of the Wistar-Han-Schering strain (SPF). The settings on record: 0.5 mmol/kg i.v. As for the experimental part:
Performance of in vivo ^19 F NMR spectroscopic pH determinations with 5-[N-(4-fluoro-2-trifluoromethylphenyl)sulfamoyl]-isophthalic acid (Example 13)
An aqueous solution of the fluorocompound is produced with a concentration of 0.4 mol/1. The pH of the aqueous solution is adjusted with NaOH to 7.2.
The NMR spectra are measured with an animal experimental nuclear spin tomograph (General Electric), which operates with a field strength of 2 tesla (corresponds to an RF resonance frequency of 80.5 MHz). The signals can be picked up by the whole-body coil (animal size) or surface coils.
The experiments are performed with female rats of the Wistar-Han-Schering strain (SPF) with a body weight of 200 g. The animal is anesthetized by an intramuscular injection of Rompun/Ketavet (1:1, 1 ml/kg of body weight). Then a butterfly needle is placed in the animal in one of the tail veins. The animal is placed in a whole-body coil and the latter is tuned to the fluororesonance frequency. The spectrum of the entire animal is developed with this coil, i.e., no volume-selective spectroscopy is performed.
The fluorinated compound is applied intravenously within 30 seconds in a dose of 0.5 mmol/kg and an F spectrum is registered within 4 minutes.
After measurement of the total animal, the animal was removed from the coil and positioned on a surface coil so that the bladder area was picked up by the coil. […] The intense signals originate from the fluorocompound in the bladder. The chemical shift in the aromatic range is identical with the deep-field signal of the aromatic range in FIG. 2.

Series [3] in a line: intravenous acute tolerability (LD50) on the mouse. The settings on record: in vivo. On the procedure: Thus, for example, an intravenous acute tolerability (LD50) of 4 mmol/kg of body weight was determined on the mouse for 5-[N-(4-fluoro-2-trifluoromethylphenyl)sulfamoyl)-isophthalic acid (Example 13).

“And” between values parts separate entries of the source, which are not always exact repeats. Equal values may be shown once.

With `O=C(O)c1cc(C(=O)O)cc(S(=O)(=O)Nc2ccc(F)cc2C(F)(F)F)c1` [Example 13, 5-[N-(4-fluoro-2-trifluoromethylphenyl)sulfamoyl]-isophthalic acid], the “excretion (imaging)” value in series [1] (0.75 mmol/kg i.v. plus GdDTPA 0.2 mmol/kg) is listed as “renally excreted”. For the same compound, the 19F image entry in series [1] (0.75 mmol/kg i.v. plus GdDTPA 0.2 mmol/kg i.v., projection spin echo, 15 minutes) was “shows the kidney, bladder and ureter”. The “F concentration in kidney, bladder and ureter” value in series [1] (0.75 mmol/kg i.v., reabsorption of water in these areas) is “high F concentration”. Moreover, in series [2] (5 minutes after application, whole rat, 2 tesla, CF3 reference signal), the “pH calculated from the chemical shifts (2 environments)” value is 6.5 and 7.7. Also, in series [2] (50 minutes after application), the “19F signal from the alkaline range” value is recorded as “almost disappeared” and the “19F signal in the acid range” value was “split into several signals”. Further, the “location of lowest pH in the animal” value in series [2] (bladder area, surface coil, 20 minutes measuring time) is given as “the lowest (most acid) pH is in the bladder”. The excretion entry in series [2] (bladder area, surface coil, 70 minutes after application, 20 minutes measuring time) is listed as “renally excreted”. Besides, the “distribution at the beginning of the experiment” value in series [2] (whole rat) is given as “found only in the blood”. In addition, the “distribution 50 minutes after application” value in series [2] (whole rat, 50 minutes) is listed as “distributed extravascularly”. The compound also yielded an LD50 in series [3] of 4000 µmol/kg.
